Source: patent US10251889B2, “Substituted pyrazolo[1,5-a]pyrimidine compounds as Trk kinase inhibitors” (Array BioPharma, Inc., priority 2009, dated 2019)

Target: Jak2 (human Jak2 kinase domain, amino acids 808-1132) (Homo sapiens (Human), UniProt O60674)
Assay: Jak2 inhibition assay (Omnia kinase assay)
Format: biochemical
Details: read-out: Jak2 Enzyme (% inhibition at 1000 nM), Table 1; 1000 nM test compound

Jak2 (human Jak2 kinase domain, amino acids 808-1132), sequence (O60674 808-1132): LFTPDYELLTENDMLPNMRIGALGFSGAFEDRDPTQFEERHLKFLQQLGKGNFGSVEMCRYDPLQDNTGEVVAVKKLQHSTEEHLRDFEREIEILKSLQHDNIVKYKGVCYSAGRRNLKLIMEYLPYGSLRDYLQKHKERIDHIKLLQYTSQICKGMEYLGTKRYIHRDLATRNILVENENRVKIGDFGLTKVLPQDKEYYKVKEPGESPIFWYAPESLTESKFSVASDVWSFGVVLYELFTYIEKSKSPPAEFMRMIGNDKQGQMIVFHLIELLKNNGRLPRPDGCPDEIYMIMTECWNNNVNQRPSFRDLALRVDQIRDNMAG

Row | SMILES | inhibition at 1 µM [%]
1 | C[C@H](NC(=O)c1cnn2ccc(N3CCC[C@@H]3c3cncc(F)c3)nc12)C(F)(F)F [Example 130, 5-((R)-2-(5-fluoropyridin-3-yl)pyrrolidin-1-yl)-N-((S)-1,1,1-trifluoropropan-2-yl)pyrazolo[1,5-a]pyrimidine-3-carboxamide] | 27.9
2 | O=C(NCC(F)(F)F)c1cnn2ccc(N3CCC[C@@H]3c3cncc(F)c3)nc12 [Example 131, (R)-5-(2-(5-fluoropyridin-3-yl)pyrrolidin-1-yl)-N-(2,2,2-trifluoroethyl)pyrazolo[1,5-a]pyrimidine-3-carboxamide] | 14.6
3 | CC(C)(CO)NC(=O)c1cnn2ccc(N3CCC[C@@H]3c3cncc(F)c3)nc12 [Example 132] | 3.7
4 | O=C(NCC(F)F)c1cnn2ccc(N3CCC[C@@H]3c3cncc(F)c3)nc12 [Example 134, (R)-N-(2,2-difluoroethyl)-5-(2-(5-fluoropyridin-3-yl)pyrrolidin-1-yl)pyrazolo[1,5-a]pyrimidine-3-carboxamide] | 3.3
5 | O=C(N[C@@H]1CCC[C@@H]1O)c1cnn2ccc(N3CCC[C@@H]3c3cncc(F)c3)nc12 [Example 135, 5-((R)-2-(5-fluoropyridin-3-yl)pyrrolidin-1-y1)-N-((1R,2S)-2-hydroxycyclopentyl)pyrazolo[1,5-a]pyrimidine-3-carboxainide] | -1
6 | O=C(N[C@@H]1CCCC[C@H]1O)c1cnn2ccc(N3CCC[C@@H]3c3cncc(F)c3)nc12 [Example 136, 5-((R)-2-(5-fluoropyridin-3-yl)pyrrolidin-1-yl)-N-((1R,2R)-2-hydroxycyclohexyl)pyrazolo[1,5-a]pyrimidine-3-carboxamide] | 4.8
7 | O=C(c1cnn2ccc(N3CCC[C@@H]3c3cncc(F)c3)nc12)N1CCCCC1 [Example 137, (R)-(5-(2-(5-fluoropyridin-3-yl)pyrrolidin-1-yl)pyrazolo[1,5-a]pyrimidin-3-yl)(piperidin-1-yl)methanone] | 3.6
8 | COc1ncc(F)cc1[C@H]1CCCN1c1ccn2ncc(C(=O)N3CC(O)C3)c2n1 [Example 139, (R)-(5-(2-(5-fluoro-2-methoxypyridin-3-yl)pyrrolidin-1-yl)pyrazolo[1,5-a]pyrimidin-3-yl)(3-hydroxyazetidin-1-yl)methanone] | -0.4
9 | COc1ncc(F)cc1[C@H]1CCCN1c1ccn2ncc(C(=O)NCCCNC(=O)OC(C)(C)C)c2n1 [Example 141, (R)-tert-butyl 3-(5-(2-(5-fluoro-2-methoxypyridin-3-yl)pyrrolidin-1-yl)pyrazolo[1,5-a]pyrimidine-3-carboxamido)propylcarbamate] | 9.4
10 | NCCCNC(=O)c1cnn2ccc(N3CCC[C@@H]3c3cc(F)c[nH]c3=O)nc12 [Example 142, (R)—N-(3-aminopropyl)-5-(2-(5-fluoro-2-oxo-1,2-dihydropyridin-3-yl)pyrrolidin-1-yl)pyrazolo[1,5-a]pyrimidine-3-carboxamide] | -0.9
11 | COc1ncc(F)cc1[C@H]1CCCN1c1ccn2ncc(C(=O)NC[C@H](O)CO)c2n1 [Example 143, N—((S)-2,3-dihydroxypropyl)-5-((R)-2-(5-fluoro-2-methoxypyridin-3-yl)pyrrolidin-1-yl)pyrazolo[1,5-a]pyrimidine-3-carboxamide] | 7
12 | COc1ncc(F)cc1[C@H]1CCCN1c1ccn2ncc(C(=O)N3CC(C)(O)C3)c2n1 [Example 147, (R)-(5-(2-(5-fluoro-2-methoxypyridin-3-yl)pyrrolidin-1-yl)pyrazolo[1,5-a]pyrimidin-3-yl)(3-hydroxy-3-methylazetidin-1-yl)methanone] | 0.9
13 | COc1ncc(F)cc1[C@H]1CCCN1c1ccn2ncc(C(=O)NCCCO)c2n1 [Example 148, (R)-5-(2-(5-fluoro-2-methoxypyridin-3-yl)pyrrolidin-1-yl)-N-(3-hydroxypropyl)pyrazolo[1,5-a]pyrimidine-3-carboxamide] | 44.3
